Activity calls are given as the source filed them.
How the values were obtained:
[1] = molecular target: T1, Luciferin 4-monooxygenase (Photinus pyralis, UniProt P08659); assay: Counter Screen for Luciferase-based Assay Positives. [Related pubchem assays: 620, 618, 411 ]
[2] = molecular target: T1, Luciferin 4-monooxygenase; assay: firefly luciferase enzyme inhibitors, dose response, biochemical, luminescence (AID 1891)
[3] = Luminescence Cell-Based Dose Confirmation HTS to Identify Inhibitors of Platelet Dense Granule Release. [Related pubchem assays: 1663 (Primary HTS), 1678 (Summary of Project)]; assay type: functional
HT-1080 = assay: cytotoxicity in HT1080 fibrosarcoma cells, cell-based, fluorescence readout (AID 620); assay type: functional; settings: Homo sapiens
[4] = A Cell Based Secondary Assay To Explore Cytotoxicity of Compounds that Sensitize Mycobacterium Tuberculosis to Beta-Lactam Antibiotics.; assay type: functional
[5] = growth suppression of PTEN-null colon cells, dose response, cell-based, HCT116 PTEN knockout (AID 1047); assay type: functional;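 also: HCT116 colon tumor cells with PTEN knocked out; cells exposed to compound for 60 hours before readout; potency for loss of cell viability measured by luminescence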
[6] = growth suppression of beta-catenin-knockout colon cells, dose response, cell-based, HCT116, human colon tumor (AID 1045); assay type: functional;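 also: HCT116 colon tumor cells with beta catenin knocked out; cells exposed to compound for 60 hours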
Leucine aminopeptidase = molecular target: T2, Leucine aminopeptidase (Plasmodium falciparum 3D7, UniProt Q8IL11); assay: P. falciparum M17LAP inhibitors, primary screen, biochemical, fluorogenic H-Leu-NHMec substrate, 1536-well (AID 1619); assay type: functional
T2 sequence (Q8IL11 whole entry): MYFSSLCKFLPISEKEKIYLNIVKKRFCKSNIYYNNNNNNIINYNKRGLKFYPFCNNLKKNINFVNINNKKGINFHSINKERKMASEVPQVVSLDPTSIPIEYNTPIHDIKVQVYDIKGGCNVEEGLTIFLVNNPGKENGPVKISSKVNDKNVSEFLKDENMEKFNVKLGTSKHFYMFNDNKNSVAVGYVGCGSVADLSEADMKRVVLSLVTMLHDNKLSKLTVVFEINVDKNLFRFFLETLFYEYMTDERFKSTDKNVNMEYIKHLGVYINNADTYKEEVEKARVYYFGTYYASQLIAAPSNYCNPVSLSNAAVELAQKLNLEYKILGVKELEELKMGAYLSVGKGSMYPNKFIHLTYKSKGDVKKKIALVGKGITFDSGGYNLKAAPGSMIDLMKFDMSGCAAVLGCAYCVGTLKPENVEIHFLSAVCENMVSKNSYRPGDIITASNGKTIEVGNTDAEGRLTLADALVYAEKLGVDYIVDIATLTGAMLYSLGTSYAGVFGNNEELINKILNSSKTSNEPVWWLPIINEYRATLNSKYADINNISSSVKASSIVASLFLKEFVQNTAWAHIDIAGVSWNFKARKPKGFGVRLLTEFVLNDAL

Aminopeptidase N = molecular target: T3, Aminopeptidase N (Plasmodium falciparum FcB1/Columbia, UniProt O96935); assay: P. falciparum M1AAP inhibitors, biochemical, fluorogenic H-Leu-NHMec substrate, 1536-well (AID 1445); set-up: species or system Plasmodium falciparum 3D7, 3D7
T3 sequence (O96935 whole entry): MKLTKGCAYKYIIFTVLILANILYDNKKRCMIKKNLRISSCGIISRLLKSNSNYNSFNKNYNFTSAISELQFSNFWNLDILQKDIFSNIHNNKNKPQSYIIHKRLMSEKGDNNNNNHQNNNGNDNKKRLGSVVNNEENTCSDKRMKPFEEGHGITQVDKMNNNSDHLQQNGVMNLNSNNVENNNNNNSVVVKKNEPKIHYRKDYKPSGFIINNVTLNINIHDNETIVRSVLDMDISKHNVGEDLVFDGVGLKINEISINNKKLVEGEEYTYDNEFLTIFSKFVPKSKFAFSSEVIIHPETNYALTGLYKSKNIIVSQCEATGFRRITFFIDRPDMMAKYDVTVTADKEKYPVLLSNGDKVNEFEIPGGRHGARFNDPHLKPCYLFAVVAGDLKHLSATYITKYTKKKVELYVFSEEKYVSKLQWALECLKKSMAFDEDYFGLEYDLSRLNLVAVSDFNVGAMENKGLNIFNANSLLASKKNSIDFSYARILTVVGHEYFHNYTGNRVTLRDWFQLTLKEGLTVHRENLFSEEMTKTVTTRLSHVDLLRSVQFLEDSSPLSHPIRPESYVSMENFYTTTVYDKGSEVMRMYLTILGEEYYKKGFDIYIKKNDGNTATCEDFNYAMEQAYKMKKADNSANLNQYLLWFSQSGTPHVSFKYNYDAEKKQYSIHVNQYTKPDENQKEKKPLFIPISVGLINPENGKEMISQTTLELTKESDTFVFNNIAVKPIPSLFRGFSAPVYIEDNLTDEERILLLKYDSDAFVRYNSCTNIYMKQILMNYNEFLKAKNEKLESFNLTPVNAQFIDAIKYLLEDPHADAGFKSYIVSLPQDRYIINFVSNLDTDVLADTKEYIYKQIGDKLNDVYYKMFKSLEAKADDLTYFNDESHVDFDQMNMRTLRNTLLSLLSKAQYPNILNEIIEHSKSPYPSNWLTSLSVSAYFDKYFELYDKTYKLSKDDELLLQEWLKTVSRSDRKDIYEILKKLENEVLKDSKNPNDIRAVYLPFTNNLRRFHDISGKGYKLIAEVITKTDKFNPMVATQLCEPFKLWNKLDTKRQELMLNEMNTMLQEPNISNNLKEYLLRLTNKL

Large T antigen = Large T antigen (Simian virus 40, UniProt P03070); assay type: functional, Betapolyomavirus macacae;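 also: Confirmatory-stage PubChem screen for compounds that inhibit SV40 T antigen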
Large T antigen, sequence (P03070 whole entry): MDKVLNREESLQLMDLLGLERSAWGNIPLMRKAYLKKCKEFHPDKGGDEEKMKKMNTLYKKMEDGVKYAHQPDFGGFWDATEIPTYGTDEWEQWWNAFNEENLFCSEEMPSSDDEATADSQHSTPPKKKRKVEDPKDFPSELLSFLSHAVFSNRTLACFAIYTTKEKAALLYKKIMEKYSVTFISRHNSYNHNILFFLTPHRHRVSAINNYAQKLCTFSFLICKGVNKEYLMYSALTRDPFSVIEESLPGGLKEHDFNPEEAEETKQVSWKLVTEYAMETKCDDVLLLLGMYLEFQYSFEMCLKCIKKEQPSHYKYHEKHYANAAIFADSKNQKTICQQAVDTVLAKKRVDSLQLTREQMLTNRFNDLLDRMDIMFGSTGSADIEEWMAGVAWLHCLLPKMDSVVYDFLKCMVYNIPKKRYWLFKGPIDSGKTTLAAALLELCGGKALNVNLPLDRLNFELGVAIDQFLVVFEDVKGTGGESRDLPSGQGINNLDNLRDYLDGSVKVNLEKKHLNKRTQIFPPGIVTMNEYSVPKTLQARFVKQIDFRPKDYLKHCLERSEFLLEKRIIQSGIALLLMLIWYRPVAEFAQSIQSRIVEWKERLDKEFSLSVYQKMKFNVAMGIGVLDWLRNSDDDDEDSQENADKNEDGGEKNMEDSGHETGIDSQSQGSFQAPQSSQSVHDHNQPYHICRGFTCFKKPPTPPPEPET

[7] = molecular target: DNA dC->dU-editing enzyme APOBEC-3A (Homo sapiens, UniProt P31941); assay: APOBEC3A DNA deaminase inhibitors, dose response, biochemical (AID 504722); assay type: functional
DNA dC->dU-editing enzyme APOBEC-3A, sequence (P31941 whole entry): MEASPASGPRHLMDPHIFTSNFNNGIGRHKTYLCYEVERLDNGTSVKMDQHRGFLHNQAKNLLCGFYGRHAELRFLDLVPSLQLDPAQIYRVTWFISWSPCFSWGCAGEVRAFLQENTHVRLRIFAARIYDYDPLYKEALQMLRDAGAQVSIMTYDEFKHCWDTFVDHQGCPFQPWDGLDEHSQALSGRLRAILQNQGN

[8] = molecular target: DNA dC->dU-editing enzyme APOBEC-3G (Homo sapiens, UniProt Q9HC16); assay: Dose Response confirmation of small molecule APOBEC3G DNA Deaminase Inhibitors via a fluorescence-based single-stranded DNA deaminase assay. [Related pubchem assays (depositor defined):AID493012, AID493028]; assay type: functional
DNA dC->dU-editing enzyme APOBEC-3G, sequence (Q9HC16 whole entry): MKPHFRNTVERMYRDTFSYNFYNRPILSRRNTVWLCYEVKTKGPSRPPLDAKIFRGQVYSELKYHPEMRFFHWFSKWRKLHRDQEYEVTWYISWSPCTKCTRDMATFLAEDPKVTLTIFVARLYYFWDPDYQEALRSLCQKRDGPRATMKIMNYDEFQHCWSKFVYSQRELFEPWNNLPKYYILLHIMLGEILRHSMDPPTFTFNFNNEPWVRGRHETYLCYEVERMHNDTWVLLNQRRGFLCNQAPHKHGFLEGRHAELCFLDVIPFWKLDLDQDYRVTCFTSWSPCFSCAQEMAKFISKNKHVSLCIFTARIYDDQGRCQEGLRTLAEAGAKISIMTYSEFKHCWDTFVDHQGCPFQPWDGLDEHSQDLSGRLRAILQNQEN

[9] = cytotoxicity in HEK-293T cells, dose response, cytotoxicity control for BCR NF-kB inhibitor project, luminescence, B-cell screen hits (AID 489021); assay type: functional, cell-based;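 also: HEK-293T cells carrying an NF-kB luciferase reporter; cells exposed to compound for about 14 hours before viability readout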
[10] = inhibitors of firefly luciferase expression or activity, dose response, H4 neuroglioma cells, luminescence (AID 1990); assay type: functional, cell-based
BJ [11] = assay: cytotoxicity toward BJ-TERT fibroblasts, dose response, cell-based, RAS-independent, luminescence (AID 1933); assay type: functional; settings: Homo sapiens
[12] = Luminescence Cell-Based Dose Response HTS to Identify Inhibitors of 5'UTR Stem-Loop Driven Prion Protein mRNA Translation in H4 Neuroglioblastoma Cells. [Related pubchem assays: 1827 (Project Summary), 1813 (Primary HTS)]; assay type: functional
[13] = inhibitors of SNCA 5'UTR-driven reporter translation, confirmation, H4 neuroglioma cells, luminescence (AID 1988); assay type: functional, cell-based
BJ [14] = assay: cells; assay type: functional, cell-based; settings: Homo sapiens
BJ [15] = assay: cytotoxicity toward BJ-TERT-LT-ST fibroblasts, dose response, cell-based, RAS-independent, luminescence (AID 1935); assay type: functional; settings: Homo sapiens;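 also: BJ fibroblasts immortalized with TERT plus LT and ST oncogenes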
[16] = cytotoxicity toward DRD oncogenic fibroblasts, dose response, cell-based, non-viral oncogenic, luminescence (AID 1934); assay type: functional; settings: Homo sapiens
HEK293 = assay: inhibitors of LMP1-driven NF-kB reporter, dose response, cell-based, HEK293, luciferase, cherry-pick (AID 588343); assay type: functional; settings: Homo sapiens
BJ [17] = assay: cytotoxicity toward Ras-transformed BJeLR fibroblasts, dose response, cell-based, alamar blue fluorescence, cherrypicked samples (AID 2631); assay type: functional; settings: Homo sapiens;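 also: confirmatory dose-response assay in RAS-dependent BJ fibroblasts engineered with TERT, LT and ST, with cytotoxicity read by fluorescence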
INS1 = assay: beta cell apoptosis inhibitors, cytokine rescue, dose response, luminescence, retest (AID 449756); assay type: functional, cell-based; settings: Rattus norvegicus;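 also: cell death triggered by IL-1 beta plus TNF-alpha plus IFN-gamma mixture; protective hits raise ATP signal compared with cytokine alone wells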

T1 sequence (P08659 whole entry): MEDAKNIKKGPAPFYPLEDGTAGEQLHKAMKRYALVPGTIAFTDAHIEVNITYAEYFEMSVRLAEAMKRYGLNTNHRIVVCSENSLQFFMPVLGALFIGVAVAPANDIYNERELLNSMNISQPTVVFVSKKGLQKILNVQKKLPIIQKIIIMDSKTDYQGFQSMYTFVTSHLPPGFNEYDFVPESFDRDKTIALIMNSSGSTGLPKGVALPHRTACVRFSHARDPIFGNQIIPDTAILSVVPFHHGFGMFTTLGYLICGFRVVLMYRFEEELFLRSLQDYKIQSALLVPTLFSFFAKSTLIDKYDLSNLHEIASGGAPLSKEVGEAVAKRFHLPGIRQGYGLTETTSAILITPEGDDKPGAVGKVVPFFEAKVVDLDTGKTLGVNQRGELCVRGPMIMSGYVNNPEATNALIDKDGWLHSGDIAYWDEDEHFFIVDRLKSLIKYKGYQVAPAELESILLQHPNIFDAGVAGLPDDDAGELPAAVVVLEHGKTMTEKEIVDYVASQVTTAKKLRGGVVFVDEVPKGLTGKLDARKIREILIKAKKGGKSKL

Q: For `COc1cccc(C(=O)/C=C/Nc2cccc(O)c2)c1`, which EC50 [1] is on record?
A: Its EC50 is 0.56 µM (active).

Q: What about the EC50 [2] of the same compound?
A: The EC50 was 1.38 µM (active).

Q: And the EC50 [3]?
A: The EC50 was 2.07 µM (active).

Q: What about the EC50 (HT-1080) of the same compound?
A: The EC50 was > 50 µM (not active).

Q: Which CC50 [4] does the source give for `C/C(=N/NC(=O)c1ccc(Cl)s1)c1ccc(NC(=O)COc2ccc(Cl)cc2)cc1` here?
A: Its CC50 is > 40 µM (active).

Q: And the EC50 [5]?
A: The EC50 was 24 µM (active).

Q: And the EC50 [6]?
A: Its EC50 is 22.2 µM (active).

Q: Which IC50 (Leucine aminopeptidase) does the source give for `O=C(NCc1ccccc1)c1ccc2c(=O)[nH]c3c(C(=O)NCC4CCCO4)sc(=S)n3c2c1` (centres undefined) here?
A: Its IC50 is 8.61 µM (active).

Q: And the IC50 (Aminopeptidase N)?
A: The IC50 was 29.2 µM (active).

Q: With `COc1cc(/C=C/C(=O)OCC(=O)Nc2cc(C)c(C)cc2[N+](=O)[O-])ccc1O` as the compound, how does the CC50 [4] read?
A: Its CC50 is > 40 µM (active).

Q: What does the source list for `CC(/C=N/n1c(S)nnc1-c1[nH]nc2c1CCC2)=C\c1ccco1`?
A: IC50 (Large T antigen): 32.3 µM (active); IC50 [7]: > 100 µM (inactive); IC50 [8]: 2.29 µM (active)

Q: Which IC50 [7] does the source give for `COc1ccccc1/C=C/C=N/n1c(S)nnc1-c1ccncc1` here?
A: Its IC50 is > 100 µM (inactive).

Q: And the IC50 [8]?
A: Its IC50 is 2.21 µM (active).

Q: Which IC50 [9] does the source give for `ClCc1nnc(-c2ccccc2)o1` here?
A: Its IC50 is > 80 µM (inactive).

Q: For `O=C1N=C(N2CCCC2)S/C1=C\c1cccc(Br)c1`, which CC50 [4] is on record?
A: The CC50 was > 40 µM (active).

Q: Which results are given for `CCCCC/N=C\c1c(C)nn(-c2nc3ccccc3s2)c1O`?
A: EC50 [10]: 9.33 µM (inconclusive); EC50 (BJ [11]): 1.26 µM (active); EC50 [1]: 1.93 µM (active); EC50 [12]: 6.84 µM (active); EC50 [13]: 7.25 µM (active); EC50 (BJ [14]): 2.32 µM (active); EC50 (HT-1080): > 50 µM (not active); EC50 (BJ [15]): 4.84 µM (active); EC50 [16]: 2.01 µM (active); AC50 (HEK293): 3.89 µM (active); EC50 (BJ [17]): > 133 µM (inactive); AC50 (INS1): 2.69 µM (active)

From ChEMBL document CHEMBL1201862, “PubChem BioAssay data set” (2004)
